These results are taken from the Bradley open melting point set (2014).

Structures are written as SMILES. Values joined by “and” are separate entries in the source; they are usually repeats but may differ in a detail not shown here. Equal values may be shown once.

A word on the melting point: it is the temperature, or range, at which the solid turns liquid. As for `CCCCCCCCCCCC` [Dodecane], the melting point is -9.6 °C.
Turning to `COc1cc(C#N)ccc1O` [4-hydroxy-3-methoxybenzonitrile], the melting point stood at 87 °C.
The same measure for `CCCCCCCCP(=O)(CCCCCCCC)CCCCCCCC` [tri-n-octylphosphine oxide]: 55 °C; for `COC(=O)c1ccc(C#N)cc1` [methyl 4-cyanobenzoate]: 67 °C.
The same measure for `Oc1cccc2ccccc12` [1-naphthol]: 96 °C.
The figure for `O=C(c1ccccc1)c1cc(C(=O)c2ccccc2)cc(C(=O)c2ccccc2)c1` [1,3,5-tribenzoylbenzene] is 118 °C; for `O=C(NC/1=N/C(=O)c2ncn(c2N\1)COCCO)C` [N-Acetylacyclovir] it is 217 °C.
On to `Oc1cccc(Cl)c1Cl` [2,3-dichlorophenol], for which the melting point was 58 °C and 56 °C.
The figure for `N#CCc1cccc(C(F)(F)F)c1Cl` [2-chloro-3-(trifluoromethyl)phenylacetonitrile] is 58 °C.
As for `N#CCc1ccc([N+](=O)[O-])cc1` [4-nitrophenylacetonitrile], the melting point is 116 °C.
The same measure for `CCCCCC(C)=O` [2-heptanone]: -35 °C; for `CCCCc1ccc(NC(C)=O)cc1` [N-(4-butylphenyl)acetamide]: 105 °C.
The figure for `C1CCC2=NCCCN2CC1` [1,8-diazabicyclo[5.4.0]undec-7-ene] is -70 °C; for `Cc1ccc(C(=O)CCC(=O)O)cc1` [3-(4-methylbenzoyl)propionic acid] it is 126 °C.
The figure for `C1=CCCCC1` [Cyclohexene] is -104 °C; for `Nc1ccc(NC(=O)c2ccc(N)cc2)cc1` [4,4'-diaminobenzanilide] it is 201 °C.
Regarding `O=Cc1ccc(B(O)O)cc1C(F)(F)F` [4-formyl-3-(trifluoromethyl)benzeneboronic acid], the melting point turned out to be 201 °C.
The same measure for `O=[N+]([O-])c1cccc(C=NO)c1` [m-Nitrobenzaldehyde oxime]: 120 °C; for `OB(O)c1ccc(OCc2ccccc2)cc1` [4-benzyloxybenzeneboronic acid]: 196 °C.
The same measure for `COc1cc(OC)c(C=O)c(OC)c1` [2,4,6-trimethoxybenzaldehyde] [listing 1 of 2 here]: 120 °C; for `ClC(Cl)Cl` [chloroform]: -63 °C; for `COC(=O)c1cccc(C(N)=O)c1` [isophthalic_acid,_methylester_amide]: 148 °C.
The same measure for `O=C4\C=C2/[C@]([C@H]1CC[C@@]3([C@@H](C(=O)C)CC[C@H]3[C@@H]1CC2)C)(C)CC4` [progesterone]: 131 °C and 130 °C; for `O=S1(=O)OC(c2cc(Br)c(O)c(Br)c2)(c2cc(Br)c(O)c(Br)c2)c2ccccc21`: 204 °C.
Turning to `CCCCOCCO` [2-Butoxyethanol], the melting point was -75 °C.
The same measure for `CC12CCC3C(CCC4CC(OCc5ccccc5)CCC43C)C1CCC2=O` (centres undefined) [3-(benzyloxy)androstan-17-one]: 220 °C; for `C/C(C)=CC=C(/C)C` [2,5-dimethyl-2,4-hexadiene]: 13 °C; for `O=Cc1cc2c(cc1[N+](=O)[O-])OCO2` [6-nitropiperonal]: 95 °C.
The same measure for `O=C(O)c1cc(Cl)ccc1Cl` [2,5-dichlorobenzoic acid]: 153 °C; for `CCOC(=O)C1=C(C)NC(=S)NC1c1ccccc1` (centres undefined): 205 °C.
`O=C(O)C(O)c1ccccc1Cl` (centres undefined) [2-chloromandelic acid] registered a melting point of 83 °C.
Take `c1ccc(C(CCN2CCCCC2)c2ccccc2)cc1` [fenpiprane]: the melting point stood at 41 °C.
The figure for `OC[C@@H](O)[C@H]1O[C@@H]2O[C@H](C(Cl)(Cl)Cl)O[C@@H]2[C@H]1O` [1,2-O-[(1R)-2,2,2-Trichloroethylidene]-alpha-D-glucofuranose] is 187 °C; for `CCCC(C)(COC(N)=O)COC(N)=O` [meprobamate] it is 104 °C.
The same measure for `CC1=CCCCC1` [1-methylcyclohexene]: -120 °C; for `c1ccc2c(c1)ccc1cc3c(ccc4ccccc43)cc12` [dibenz[a,h]anthracene]: 270 °C.
The figure for `OB(O)c1cccc(-c2ccccc2)c1` [biphenyl-3-boronic acid] is 209 °C; for `O=C(O)CC1CCCC1=O` (centres undefined) [2-oxocyclopentylacetic acid] it is 49 °C.
As to `CCCCN` [Butylamine], the melting point is -49 °C.
The figure for `CC(C)(C)OC(=O)N[C@@H](Cc1ccc(Cl)cc1Cl)C(=O)O` [N-boc-2,4-dichloro-L-phenylalanine] is 135 °C; for `CC(CCc1ccccc1)NCC(O)c1ccc(O)c(C(N)=O)c1` (centres undefined) [labetalol] it is 188 °C; for `C[Si]1(C)O[Si](C)(C)O[Si](C)(C)O[Si](C)(C)O[Si](C)(C)O1` [decamethylcyclopentasiloxane] it is -44 °C.
The same measure for `CCCCOC(=O)CCC` [N-butyl butyrate]: -92 °C; for `CC1(c2ccccc2)C(=O)NC(=O)NC1=O` [heptobarbital]: 228 °C; for `c1ccc(C2=C(c3ccccc3)C(c3ccccc3)C(c3ccccc3)=C2c2ccccc2)cc1` [pentaphenylcyclopentadiene]: 256 °C.
The same measure for `Clc1cccc(Cl)c1N=C1NCCN1` [Clonidine]: 130 °C; for `CCCCCCCCCCCCCCc1ccccc1` [Tetradecylbenzene]: 9 °C; for `Cc1cccnc1` [3-picoline]: -18 °C.
Molecule `CCCCCCCCCCOc1ccc(/C=N/c2ccc(/C=C/C(=O)OCC)cc2)cc1` showed a melting point of 115 °C.
The same measure for `O=C1OC2(c3ccccc31)c1ccc(O)c(Br)c1Oc1c2ccc(O)c1Br` [4',5'-dibromofluorescein]: 272 °C; for `CCC(C)(C)Cl` [2-chloro-2-methylbutane]: -73 °C.
The figure for `CC(C)CC1=C/C(=C/c2ccc(-c3ccccc3)o2)C(=O)O1` is 76 °C.
The figure for `O=C(Nc1ccc([N+](=O)[O-])cc1[N+](=O)[O-])C(C(F)(F)F)C(F)(F)F` is 121 °C; for `CS(N)(=O)=O` [methanesulfonamide] it is 90 °C; for `CCCC(=O)c1cc2ccccc2oc1=O` [3-butyrylcoumarin] it is 94 °C.
`c1ccc2c(c1)ccc1ccccc12` [phenanthrene]: the melting point was 99.2 °C and 101 °C and 99 °C.
The same measure for `Cc1ccc(-c2cc(C(F)(F)F)nn2-c2ccc(S(N)(=O)=O)cc2)cc1` [celecoxib]: 158 °C; for `c1ccc2c(c1)cc1ccc3cccc4ccc2c1c34` [benzo[a]pyrene]: 176 °C and 179 °C; for `COc1cc(OC)c(C=O)c(OC)c1` [2,4,6-trimethoxybenzaldehyde] [listing 2 of 2 here]: 121 °C.
In the case of `COC(C)=O` [Methyl acetate], the melting point was -98 °C.
The same measure for `OCCCCCCCCCCO` [1,10-decanediol]: 73 °C; for `CCOC(=O)/C=C/c1cccc(/C=C/C(=O)OCC)c1` [diethyl (2E,2'E)-3,3'-benzene-1,3-diylbisprop-2-enoate]: 54 °C; for `CCCCCCCCCCCC` [N-dodecane]: -10 °C.
The figure for `CCCCCCCCCCCCCC` [tetradecane] is 6 °C; for `CC(C)(C)OC(=O)N1CCS[C@@H]1C(=O)O` [(R)-3-boc-thiazolidine-2-carboxylic acid] it is 92 °C; for `O=C(O)C(O)c1cc(F)cc(F)c1` (centres undefined) [3,5-difluoromandelic acid] it is 136 °C.
For the molecule `COC(=O)c1ccc(C)c(C)c1` [methyl 3,4-dimethylbenzoate], the melting point is 36 °C.
The figure for `C=CCCCCCCCCCC` [Dodec-1-ene] is -35 °C.
Molecule `OC(CCN1CCCCC1)(c1ccccc1)c1ccccc1` [pridinol] returned a melting point of 120 °C.
The same measure for `COC(=O)c1ccc2nccnc2c1` [methyl quinoxaline-6-carboxylate]: 98 °C; for `O=C(NCc1ccccc1)c1ccccc1` [N-benzylbenzamide]: 106 °C; for `CN1Cc2c(N)cccc2C(c2ccccc2)C1` (centres undefined) [Nomifensine]: 180 °C.
The same measure for `CCCCCCC(=O)OCC` [ethyl heptanoate]: -66 °C; for `Cc1cc(N)ccc1F` [4-fluoro-3-methylaniline]: 34 °C.
The figure for `CC(C(O)c1ccc(O)cc1)N1CCC(Cc2ccccc2)CC1` (centres undefined) [ifenprodil] is 114 °C.
For the molecule `CCNc1nc(NC(C)(C)C)nc(SC)n1` [terbutryn], the melting point was found to be 105 °C.
The same measure for `COc1ccc(CN)cc1` [4-methoxybenzylamine]: -10 °C; for `O=C(O)CCCCC(=O)O` [adipic acid]: 153 °C; for `COC1=C(OC)/C(=C\CN=[N+]=[N-])OC1=O` [(5E)-5-(2-azidoethylidene)-3,4-dimethoxyfuran-2(5H)-one]: 56 °C.
The same measure for `N#C/C=C/C#N` [(2E)-But-2-enedinitrile]: 97 °C; for `O=C(O)Cc1ccc(O)cc1` [4-hydroxyphenylacetic acid]: 152 °C.
The figure for `N#Cc1cc(Cl)cc(Cl)c1` [3,5-dichlorobenzonitrile] is 66 °C.
On to `CCOC(=O)c1ccc(C#N)cc1` [ethyl_p-cyanobenzoate], for which the melting point came out at 54 °C.
The molecule `CC(=O)Oc1ccc2c(C)cc(=O)oc2c1` [4-methylumbelliferyl acetate] registered a melting point of 150 °C.
`Cc1ccc(O)c(-c2ccno2)c1` [2-(5-isoxazolyl)-4-methylphenol] gave a melting point of 176 °C.
`Cc1ccc(C(=O)O)cc1Cl` [3-chloro-4-methylbenzoic acid] returned a melting point of 199 °C.
`OC1CCCCCCC1` [cyclooctanol] came in with a melting point of 15 °C.
The figure for `CCCCOC(=O)c1ccc(O)cc1` [butylparaben] is 68.5 °C (2×) and 69 °C; for `C[C@H]1CCCC[C@@H]1O` (relative stereo) [trans-2-methylcyclohexanol] it is -21 °C.
